For 18 compounds, IC50 and Ki results are on record in patent US20230293517A1, “ANTAGONIST COMPOUNDS” (AdoRx Therapeutics Limited, priority 2020, published 2023).

The structures appear in SMILES notation.

Assay [1] deals with CD8+T cells in human whole blood. Kind of assay: Measurement of pCREB in CD8+T cells in human whole blood. The format is cell-based. The following applies: 3 μM NECA, rolipram. The method in brief:
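Heparinised human whole blood pre-incubated 20 min at 37 °C with serially diluted A2a antagonists plus rolipram, then stimulated 60 min with 3 μM NECA (final). After fixation and red-cell lysis, white cells were permeabilized and stained for phospho-CREB and CD8; pCREB in CD8+ T cells measured by flow cytometry.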

The target of assay [2] is human Adenosine A2b receptor (Homo sapiens (Human), UniProt P29275). Kind of assay: Adenosine receptor TR-FRET binding assay (A2b). The conditions noted are these: TR-FRET, inhibition of binding of 30 nM CA200645, CHO cell membranes. The method in brief:
(§1)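 Competition binding measured by TR-FRET between terbium-labelled receptors (CHO membranes, human) and fluorescent XAC, CA200645, used at 30 nM for A2b and 100 nM elsewhere. Room temperature, 2 h. Reported as Ki (Cheng–Prusoff).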
A general note: TR-FRET usually uses a lanthanide donor and a delayed reading to cut background.

The target of assay [3] is human Adenosine A1 receptor (Homo sapiens (Human), UniProt P30542). The assay is described as follows: Adenosine receptor TR-FRET binding assay (A1). The conditions noted are these: inhibition of binding of 100 nM CA200645, CHO cell membranes. The method, boiled down: as §1
The target in assay [4] is human Adenosine A2a receptor (Homo sapiens (Human), UniProt P29274). The assay is described as follows: Adenosine receptor TR-FRET binding assay (A2a). The conditions noted are these: inhibition of binding of 100 nM CA200645, CHO cell membranes. The method, boiled down: as §1
Assay [5] has as its target human Adenosine A3 receptor (Homo sapiens (Human), UniProt P0DMS8). The assay is described as follows: Adenosine receptor TR-FRET binding assay (A3). The following applies: inhibition of binding of 100 nM CA200645, CHO cell membranes. The method in brief:
as §1

A further assay deals with human PBMCs. Kind of assay: CD3/CD28 stimulated IL-2 release NECA reversal assay in human PBMCs. It is filed as cell-based. The conditions noted are these: PBMC, 1 uM NECA, 24 hours, IL-2 in culture supernatant. The method, boiled down:
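PBMCs from citrated healthy-donor blood plated at 50,000 cells/well on 1 ug/ml CD3 antibody with 1 ug/ml CD28 antibody, 1 uM NECA and 0.003-10 μM antagonist (final), 24 h at 37° C. Supernatant IL-2 measured by MSD immunoassay; % inhibition set against no-NECA control wells as 100%.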

human Adenosine A3 receptor, sequence (P0DMS8 whole entry): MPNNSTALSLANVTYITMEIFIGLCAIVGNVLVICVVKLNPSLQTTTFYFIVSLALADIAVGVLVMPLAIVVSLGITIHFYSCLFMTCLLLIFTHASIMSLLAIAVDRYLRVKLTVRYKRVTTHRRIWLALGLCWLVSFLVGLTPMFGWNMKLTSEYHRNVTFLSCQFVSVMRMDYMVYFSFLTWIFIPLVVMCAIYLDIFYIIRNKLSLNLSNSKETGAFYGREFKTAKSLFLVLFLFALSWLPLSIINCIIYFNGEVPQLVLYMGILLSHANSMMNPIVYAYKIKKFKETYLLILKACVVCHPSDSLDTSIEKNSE
human Adenosine A2a receptor, sequence (P29274 whole entry): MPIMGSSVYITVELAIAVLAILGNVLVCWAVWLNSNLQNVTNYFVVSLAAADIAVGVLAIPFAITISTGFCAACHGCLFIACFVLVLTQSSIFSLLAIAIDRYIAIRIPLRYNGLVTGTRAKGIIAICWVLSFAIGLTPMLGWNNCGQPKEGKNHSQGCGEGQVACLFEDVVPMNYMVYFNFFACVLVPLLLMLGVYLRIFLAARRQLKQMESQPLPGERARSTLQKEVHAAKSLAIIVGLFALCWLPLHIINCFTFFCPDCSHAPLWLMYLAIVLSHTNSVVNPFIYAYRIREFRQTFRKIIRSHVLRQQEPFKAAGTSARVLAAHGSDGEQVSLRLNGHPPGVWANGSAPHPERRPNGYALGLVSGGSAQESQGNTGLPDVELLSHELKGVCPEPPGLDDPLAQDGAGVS
human Adenosine A2b receptor, sequence (P29275 whole entry): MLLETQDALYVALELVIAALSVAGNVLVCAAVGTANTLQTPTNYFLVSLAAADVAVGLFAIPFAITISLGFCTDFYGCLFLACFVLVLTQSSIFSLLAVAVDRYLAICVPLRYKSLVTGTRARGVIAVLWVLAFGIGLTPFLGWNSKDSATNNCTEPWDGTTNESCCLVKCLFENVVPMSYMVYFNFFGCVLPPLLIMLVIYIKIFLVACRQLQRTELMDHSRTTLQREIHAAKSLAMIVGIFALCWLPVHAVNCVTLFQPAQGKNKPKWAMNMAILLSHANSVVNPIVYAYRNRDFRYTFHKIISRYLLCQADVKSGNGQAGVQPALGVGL
human Adenosine A1 receptor, sequence (P30542 whole entry): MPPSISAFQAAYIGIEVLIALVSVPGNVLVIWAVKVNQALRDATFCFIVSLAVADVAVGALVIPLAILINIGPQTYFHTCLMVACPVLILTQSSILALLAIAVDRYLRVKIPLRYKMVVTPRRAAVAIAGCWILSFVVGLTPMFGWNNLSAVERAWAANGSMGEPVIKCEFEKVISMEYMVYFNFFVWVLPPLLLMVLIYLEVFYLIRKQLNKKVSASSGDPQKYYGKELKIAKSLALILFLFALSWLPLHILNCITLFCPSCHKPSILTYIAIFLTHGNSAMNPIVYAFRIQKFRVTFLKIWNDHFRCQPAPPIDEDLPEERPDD

As usually defined, the IC50 is the concentration needed to halve the response being measured. What is called Ki is a measure of affinity in units of concentration, obtained from inhibition or displacement. In the case of `Cc1cc(-c2sc(NC(=O)N3CCC4(CC3)CNC(=O)C4)nc2-c2cccc(C#N)c2)cc(C)n1` [Example 6.4, N-[4-(3-Cyanophenyl)-5-(2,6-dimethyl-4-pyridyl)thiazol-2-yl]-3-oxo-2,8-diazaspiro[4.5]decane-8-carboxamide], the IC50 was 190 nM in assay [1] and 1.4 nM with human PBMCs. In addition, the inhibition constant Ki worked out at 3.1 nM in assay [2], 103 nM in assay [3], 0.67 nM in assay [4] and 360 nM in assay [5].

Consider `Cc1cc(-c2sc(NC(=O)N3CC(C#N)C3)nc2-c2cccc(C#N)c2)cc(C)n1` [Example 4.26, 3-Cyano-N-[4-(3-cyanophenyl)-5-(2,6-dimethyl-4-pyridyl)thiazol-2-yl]azetidine-1-carboxamide], for which the IC50 was 20 nM in assay [1] and 0.4 nM in the assay on human PBMCs. The inhibition constant (Ki) in assay [2] was 0.4 nM; in assay [3] it was 4 nM; in assay [4], 0.05 nM; in assay [5], 130 nM.

For the compound `Cc1cc(-c2sc(NC(=O)N3CCN(S(C)(=O)=O)CC3)nc2-c2cccc(C#N)c2)cc(C)n1` [Example 4.18, N-[4-(3-cyanophenyl)-5-(2,6-dimethyl-4-pyridyl)thiazol-2-yl]-4-methylsulfonyl-piperazine-1-carboxamide], the IC50 in assay [1] amounted to 350 nM; in the assay with human PBMCs, 6.1 nM. In addition, the inhibition constant (Ki) in assay [2] came to 2.3 nM; in assay [3], 94 nM; in assay [4], 0.6 nM; in assay [5], 414 nM.

Take `Cc1cc(-c2sc(NC(=O)N3CCC(C)(C#N)C3)nc2-c2cccc(C#N)c2)cc(C)n1` (racemic) [Example 27, 3-Cyano-N-[4-(3-cyanophenyl)-5-(2,6-dimethyl-4-pyridyl)thiazol-2-yl]-3-methyl-pyrrolidine-1-carboxamide]: the IC50 was 80 nM in assay [1] and 0.9 nM with human PBMCs. The inhibitory constant (Ki) came to 0.8 nM in assay [2], 21 nM in assay [3], 0.41 nM in assay [4] and 225 nM in assay [5].

Regarding `Cc1cc(-c2sc(NC(=O)N3CCC4(CCC(=O)N4)CC3)nc2-c2cccc(C#N)c2)cc(C)n1` [Example 6.45, N-[4-(3-Cyanophenyl)-5-(2,6-dimethyl-4-pyridyl)thiazol-2-yl]-2-oxo-1,8-diazaspiro[4.5]decane-8-carboxamide], the IC50 was found to be 310 nM in assay [1] and 9.4 nM in the assay on human PBMCs. The Ki in assay [2] came to 2 nM; in assay [3], 104 nM; in assay [4], 0.44 nM; in assay [5], 183 nM.

On to `CN=S1(=O)CCN(C(=O)Nc2nc(-c3cccc(C#N)c3)c(-c3cc(C)nc(C)c3)s2)CC1` [Example 6.32, N-[4-(3-Cyanophenyl)-5-(2,6-dimethyl-4-pyridyl)thiazol-2-yl]-1-methylimino-1-oxo-1,4-thiazinane-4-carboxamide], for which the IC50 in assay [1] was 230 nM; in the assay on human PBMCs, 8.6 nM. In addition, the Ki turned out to be 5.4 nM in assay [2], 109 nM in assay [3], 0.83 nM in assay [4] and 719 nM in assay [5].

On to `Cc1cc(-c2sc(NC(=O)N3CCS(=N)(=O)CC3)nc2-c2cccc(C#N)c2)cc(Cl)n1` [Example 3.12], for which the values for the IC50 (in assay [1]; in the assay with human PBMCs) were 600 nM and 8 nM, respectively. In addition, the Ki in assay [2] turned out to be 1 nM; in assay [3], 18 nM; in assay [4], 0.25 nM; in assay [5] it was 531 nM.

As to `Cc1cc(-c2sc(NC(=O)N3CCN(CCO)CC3)nc2-c2cccc(C#N)c2)cc(C)n1` [Example 4.3, N-[4-(3-Cyanophenyl)-5-(2,6-dimethyl-4-pyridyl)thiazol-2-yl]-4-(2-hydroxyethyl)piperazine-1-carboxamide], the half-inhibitory concentration (IC50) amounted to 170 nM in assay [1] and 18.2 nM in the assay with human PBMCs. The Ki in assay [2] stood at 3.8 nM; in assay [3], 187 nM; in assay [4], 0.7 nM; in assay [5] it was 603 nM.

Regarding `Cc1cc(-c2sc(NC(=O)N3CCNCC3)nc2-c2cccc(C#N)c2)cc(C)n1` [Example 7, N-[4-(3-Cyanophenyl)-5-(2,6-dimethyl-4-pyridyl)thiazol-2-yl]piperazine-1-carboxamide], the IC50 in assay [1] was 580 nM; with human PBMCs it was 16 nM. The inhibitory constant (Ki) worked out at 11.1 nM in assay [2], 42 nM in assay [3], 2.81 nM in assay [4] and 304 nM in assay [5].

Regarding `Cc1cc(-c2sc(NC(=O)N3CCC4(CCOC(=O)N4)CC3)nc2-c2cccc(C#N)c2)cc(C)n1` [Example 6.50, N-[4-(3-Cyanophenyl)-5-(2,6-dimethyl-4-pyridyl)thiazol-2-yl]-2-oxo-3-oxa-1,9-diazaspiro[5.5]undecane-9-carboxamide], the IC50 in assay [1] is 190 nM; with human PBMCs, 3.6 nM. Further, the inhibitory constant (Ki) in assay [2] came out at 3.4 nM; in assay [3], 136 nM; in assay [4] it was 1.63 nM; in assay [5], 472 nM.

For the compound `Cc1cc(-c2sc(NC(=O)N3CC[C@@H](C(C)(C)O)C3)nc2-c2cccc(C#N)c2)cc(CO)n1` [Example 9.2], the IC50 worked out at 20 nM in assay [1] and 2.7 nM in the assay with human PBMCs. Moreover, the Ki is 5.3 nM in assay [2], 102 nM in assay [3], 0.79 nM in assay [4] and 772 nM in assay [5].

As to `Cc1cc(-c2sc(NC(=O)N3CCN[C@H](C(C)(C)O)C3)nc2-c2cccc(C#N)c2)cc(C)n1` [Example 6.75, (3S)-N-[4-(3-Cyanophenyl)-5-(2,6-dimethyl-4-pyridyl)thiazol-2-yl]-3-(1-hydroxy-1-methyl-ethyl)piperazine-1-carboxamide], the half-maximal inhibitory concentration (IC50) was determined as 180 nM in assay [1] and 5.9 nM with human PBMCs. Also, the Ki in assay [2] worked out at 4.8 nM; in assay [3], 99 nM; in assay [4], 0.81 nM; in assay [5], 361 nM.

As to `Cc1cc(-c2sc(NC(=O)N3CCC(C)(N)CC3)nc2-c2cccc(C#N)c2)cc(Cl)n1` [Example 5.9, 4-Amino-N-[5-(2-chloro-6-methyl-4-pyridyl)-4-(3-cyanophenyl)thiazol-2-yl]-4-methyl-piperidine-1-carboxamide], the IC50 worked out at 1000 nM in assay [1] and 18.3 nM in the assay with human PBMCs. Also, the Ki is 4.3 nM in assay [2], 82 nM in assay [3], 2.32 nM in assay [4] and 125 nM in assay [5].

`Cc1cc(-c2sc(NC(=O)N3CCN4CCS(=O)(=O)CC4C3)nc2-c2cccc(C#N)c2)cc(C)n1` (stereo not drawn) [Example 6.14, N-[4-(3-Cyanophenyl)-5-(2,6-dimethyl-4-pyridyl)thiazol-2-yl]-2,2-dioxo-3,4,6,7,9,9a-hexahydro-1H-pyrazino[2,1-c][1,4]thiazine-8-carboxamide]: the results for the IC50 (in assay [1]; in the assay with human PBMCs) were 50 nM and 5.3 nM, respectively. Also, the Ki in assay [2] amounted to 2.6 nM; in assay [3] it was 167 nM; in assay [4], 0.6 nM; in assay [5], 772 nM.

Turning to `Cc1cc(-c2sc(NC(=O)N3CC4(C3)CC(C)(O)C4)nc2-c2cccc(C#N)c2)cc(C)n1` [Example 6.44, N-[4-(3-Cyanophenyl)-5-(2,6-dimethyl-4-pyridyl)thiazol-2-yl]-6-hydroxy-6-methyl-2-azaspiro[3.3]heptane-2-carboxamide], the 50% inhibitory concentration (IC50) in assay [1] stood at 100 nM; with human PBMCs, 3.1 nM. Further, the Ki in assay [2] turned out to be 2.4 nM; in assay [3] it was 151 nM; in assay [4] it was 0.4 nM; in assay [5], 299 nM.

Take `Cc1cc(-c2sc(NC(=O)N3CCS(=N)(=O)CC3)nc2-c2cccc(C#N)c2)cc(C(F)F)n1` [Example 16.1]: the values for the IC50 (in assay [1]; with human PBMCs) were 120 nM and 6.7 nM, respectively. For the same compound, the Ki was determined as 2.2 nM in assay [2], 22 nM in assay [3], 0.29 nM in assay [4] and 257 nM in assay [5].

For `Cc1cc(-c2sc(NC(=O)N3CCC4(CC3)CN(C)C(=O)O4)nc2-c2cccc(C#N)c2)cc(C)n1` [Example 6.12, N-[4-(3-Cyanophenyl)-5-(2,6-dimethyl-4-pyridyl)thiazol-2-yl]-3-methyl-2-oxo-1-oxa-3,8-diazaspiro[4.5]decane-8-carboxamide], the IC50 in assay [1] is 110 nM; in the assay on human PBMCs it was 2.7 nM. The inhibitory constant (Ki) in assay [2] was 2.4 nM; in assay [3], 137 nM; in assay [4], 0.23 nM; in assay [5] it was 298 nM.

Consider `Cc1cc(-c2sc(NC(=O)N3CCS(=O)(=NC#N)CC3)nc2-c2cccc(C#N)c2)cc(C)n1` [Example 11, 1-Cyanoimino-N-[4-(3-cyanophenyl)-5-(2,6-dimethyl-4-pyridyl)thiazol-2-yl]-1-oxo-1,4-thiazinane-4-carboxamide], for which the figures for the IC50 (in assay [1]; with human PBMCs) were 1130 nM and 10.5 nM, respectively. Besides, the Ki was found to be 1.3 nM in assay [2], 51 nM in assay [3], 0.62 nM in assay [4] and 515 nM in assay [5].
